Experimental findings from patent publication US6770659B2, “Benzoyl piperidine compounds” (SK Corporation, priority 2002, dated 2004) are described below.

The experiment deals with climbing behavior induced by apomorphine in mice. Put plainly: Climbing Mouse Assay (anti-climbing behavior test). The class given is in vivo. The note with it: ICR CD strain male mice, apomorphine challenge; for ED50: Mus musculus. The text has this:
This activity was examined through the anti-climbing behavior test, i.e. the test for suppressing the climbing behavior induced by apomorphine in mice. A designated amount of the test compound was intraperitoneally or orally administered to several groups of ICR CD strain male mice (body weight, 20 to 25 g; one group, 6 mice), and each of the animals was charged in an individual column cage of 12 cm in diameter and 14 cm in height having metal poles (each pole, 2 mm in diameter) vertically installed and arranged along the periphery with interval of 1 cm.
Compounds to be tested for antipsychotic activity are injected intraperitoneally or given orally at various time intervals, e.g. 30 minutes, 60 minutes, etc., prior to the apomorphine challenge at a screening dose of 0.1-60 mg/kg.
For evaluation of climbing, 3 readings are taken at 10, 20 and 30 minutes after apomorphine administration according to the following scale:
Mice consistently climbing before the injection of apomorphine will be discarded.
With full-developed apomorphine climbing, the animals are hanging on to the cage walls, rather motionless, over longer periods of time. By contrast, climbing due to mere motor stimulation usually only lasts a few seconds.
The climbing scores are individually totaled (maximal score: 12 per mouse over 3 readings) and the total score of the control group (vehicle intraperitoneally-apomorphine subcutaneously) is set to 100%. ED50 values with 95% confidence limits, calculated by a linear regression analysis, of some of the compounds of the instant invention as well as a standard antipsychotic agent are presented in Table I.

[1] abbreviates: intraperitoneal administration, read-out: Climbing Mouse Assay ED50 i.p.
The mark [2] stands for this setting: oral administration, read-out: Climbing Mouse Assay ED50 p.o. (converted).

Structures are written as SMILES. Read-outs that look alike come from different tables or passages of the source.

As for `CC(C)c1ccc(C(CN2CCC(C(=O)c3ccc(F)cc3)CC2)n2cncn2)cc1.Cl.Cl.Cl` (centres unmarked) [(4-Fluoro-phenyl)-{1-[2-(4-isopropyl-phenyl)-2-[1,2,4]triazoyl-1-yl-ethyl]-piperidin-4-yl}-methanone trihydrochloride], the “Climbing Mouse Assay ED50 i.p.” value (intraperitoneal administration) is given as 3.1 mg/kg. The “Climbing Mouse Assay ED50 p.o.” value (oral administration) is on record as 4.7 mg/kg.
Usually ED50 stands for the dose at which the effect has come halfway, by size or by number of responders. As to `COC(CN1CCC(C(=O)c2ccc(F)cc2)CC1)c1ccc(C(C)C)cc1` (centres unmarked) [(4-Fluoro-phenyl)-{1-[2-(4-isopropyl-phenyl)-2-methoxy-ethyl]-piperidin-4-yl}-methanone], the ED50 under setting [1] came out at 0.17 mg/kg and the median effective dose (ED50) under setting [2] is 0.41 mg/kg.
For `COC(CN1CCC(C(=O)c2ccc(F)cc2)CC1)c1ccc([N+](=O)[O-])cc1.Cl` (centres unmarked) [(4-Fluoro-phenyl)-{1-[2-methoxy-2-(4-nitro-phenyl)-ethyl]-piperidin-4yl}-methanone; hydrochloride], in that order: 5.9 mg/kg and 51.2 mg/kg.
With `CO[C@@H](CN1CCC(C(=O)c2ccc(F)cc2)CC1)c1ccc([N+](=O)[O-])cc1` [(R)-(4-Fluoro-phenyl)-{1-[2-methoxy-2-(4-nitro-phenyl)-ethyl]-piperidin-4-yl}-methanone], the median effective dose (ED50) under setting [1] was found to be 24.2 mg/kg.
Regarding `Cl.NC(=O)O[C@@H](CN1CCC(C(=O)c2ccc(F)cc2)CC1)c1ccccc1` [(R)-Carbamic acid 2-[4-(4-fluoro-benzoyl)-piperidin-1-yl]-1-phenyl-ethyl ester; hydrochloride], the ED50 runs as follows: under setting [1], 17.8 mg/kg; under setting [2], 46.2 mg/kg.
On the same counts, the results for `CO[C@H](CN1CCC(C(=O)c2ccc(F)cc2)CC1)c1ccc(C(C)C)cc1` [(S)-(4-Fluoro-phenyl)-{1-[2-(4-isopropyl-phenyl)-2-methoxy-ethyl]-piperidin-4-yl}-methanone] are 0.13 mg/kg and 0.09 mg/kg.
For `CO[C@H](CN1CCC(C(=O)c2ccc(F)cc2)CC1)c1ccc([N+](=O)[O-])cc1` [(S)-(4-Fluoro-phenyl)-{1-[2-methoxy-2-(4-nitro-phenyl)-ethyl]-piperidin-4-yl}-methanone], in that order: 4.5 mg/kg and 16.9 mg/kg.
For `Cl.NC(=O)O[C@H](CN1CCC(C(=O)c2ccc(F)cc2)CC1)c1ccccc1` [(S)-Carbamic acid 2-[4-(4-fluoro-benzoyl)-piperidin-1-yl]-1-phenyl-ethyl ester; hydrochloride], in that order: 0.96 mg/kg and 4.3 mg/kg.
On to `CCc1ccc([C@@H](CN2CCC(C(=O)c3ccc(F)cc3)CC2)OC)cc1` [(S)-{1-[2-(4-Ethyl-phenyl)-2-methoxy-ethyl]-piperidin-4-yl}-(4-fluoro-phenyl)-methanone], for which the 50% effective dose (ED50) is, setting by setting: under setting [1], 0.31 mg/kg; under setting [2], 1.2 mg/kg.
As for `O=C(c1ccc(F)cc1)C1CCN(CC(COc2ccccc2)OC(=O)N2CCCCCC2)CC1` (centres unmarked) [Azepane-1-carboxylic acid 1-[4-(4-fluoro-benzoyl)-piperidin-1-ylmethyl]-2-phenoxy-ethyl ester], the ED50 under setting [1] was determined as 1.5 mg/kg.
On to `Cl.O=C(NCc1ccccc1)OC(CN1CCC(C(=O)c2ccc(F)cc2)CC1)c1ccccc1` (centres unmarked) [Benzyl-carbamic acid 2-[4-(4-fluoro-benzoyl)-piperidin-1-yl]-1-phenyl-ethyl ester; hydrochloride], for which the 50% effective dose (ED50) under setting [1] is 2.2 mg/kg and the ED50 under setting [2] was 7.1 mg/kg.
On the same counts, the results for `Cl.NC(=O)OC(CN1CCC(C(=O)c2ccc(F)cc2)CC1)c1ccc(Cl)c(Cl)c1` (centres unmarked) [Carbamic acid 1-(3,4-dichloro-phenyl)-2-[4-(4-fluoro-benzoyl)-piperidin-1-yl]-ethyl ester; hydrochloride] are 0.32 mg/kg and 0.48 mg/kg.
On the same counts, the results for `Cl.NC(=O)OC(CN1CCC(C(=O)c2ccc(F)cc2)CC1)c1cccc(Cl)c1` (centres unmarked) [Carbamic acid 1-(3-chloro-phenyl)-2-[4-(4-fluoro-benzoyl)-piperidin-1-yl]-ethyl ester; hydrochloride] are 0.56 mg/kg and 0.94 mg/kg.
Consider `Cl.NC(=O)OC(COc1ccccc1)CN1CCC(C(=O)c2ccc(F)cc2)CC1` (centres unmarked) [Carbamic acid 1-[4-(4-fluoro-benzoyl)-piperidin-1-ylmethyl]-2-phenoxy-ethyl ester; hydrochloride], for which the median effective dose (ED50) under setting [1] amounted to 2 mg/kg and the ED50 under setting [2] was 8.5 mg/kg.
Take `Cl.NC(=O)OC(CN1CCC(C(=O)c2ccc(F)cc2)CC1)c1cccc([N+](=O)[O-])c1` (centres unmarked) [Carbamic acid 2-[4-(4-fluoro-benzoyl)-piperidin-1-yl]-1-(3-nitro-phenyl)-ethyl ester; hydrochloride]: under setting [1], the ED50 amounted to 2.6 mg/kg.
On the same count and under the same terms, the result for `Cl.NC(=O)OC(CN1CCC(C(=O)c2ccc(F)cc2)CC1)c1ccc(C(F)(F)F)cc1` (centres unmarked) [Carbamic acid 2-[4-(4-fluoro-benzoyl)-piperidin-1-yl]-1-(4-trifluoromethyl-phenyl)-ethyl ester; hydrochloride] reads 1.8 mg/kg.
`Cl.NC(=O)OC(CN1CCC(C(=O)c2ccc(F)cc2)CC1)c1ccccc1` (centres unmarked) [Carbamic acid 2-[4-(4-fluoro-benzoyl)-piperidin-1-yl]-1-phenyl-ethyl ester; hydrochloride]: the ED50 was 4.8 mg/kg under setting [1] and 9.7 mg/kg under setting [2].
As to `CC(C)OC(=O)OC(CN1CCC(C(=O)c2ccc(F)cc2)CC1)c1cccc(Cl)c1` (centres unmarked) [Carbonic acid 1-(3-chloro-phenyl)-2-[4-(4-fluoro-benzoyl)-piperidin-1-yl]-ethyl ester isopropyl ester], under setting [1], the 50% effective dose (ED50) was determined as 6.2 mg/kg.
As for `CCc1ccc(C(CN2CCC(C(=O)c3ccc(F)cc3)CC2)OC(=O)OC)cc1` (centres unmarked) [Carbonic acid 1-(4-ethyl-phenyl)-2-[4-(4-fluoro-benzoyl)-piperidin-1-yl]-ethyl ester methyl ester], the ED50 runs as follows: under setting [1], 2.4 mg/kg; under setting [2], 7.6 mg/kg.
For `CN1CCN(C2=Nc3cc(Cl)ccc3Nc3ccccc32)CC1` [Clozapine, reference compound], in that order: 6.3 mg/kg and 13.5 mg/kg.
Regarding `Cc1nc2n(c(=O)c1CCN1CCC(c3noc4cc(F)ccc34)CC1)CCCC2` [Risperidone, reference compound], the 50% effective dose (ED50) runs as follows: under setting [1], 0.11 mg/kg; under setting [2], 0.29 mg/kg.
For `Cc1ccc(C(CN2CCC(C(=O)c3ccc(F)cc3)CC2)n2cncn2)cc1C` (centres unmarked) [{1-[2-(3,4-Dimethyl-phenyl)-2-[1,2,4]triazol-1-yl-ethyl]-piperidin-4-yl}-(4-fluoro-phenyl)-methanone], in that order: 4.5 mg/kg and 16.6 mg/kg.
With `CCc1ccc(C(CN2CCC(C(=O)c3ccc(F)cc3)CC2)OC)cc1` (centres unmarked) [{1-[2-(4-Ethyl-phenyl)-2-methoxy-ethyl]-piperidin-4-yl}-(4-fluoro-phenyl)-methanone], under setting [1], the 50% effective dose (ED50) was 0.87 mg/kg.
As for `CCOC(CN1CCC(C(=O)c2ccc(F)cc2)CC1)c1ccc([N+](=O)[O-])cc1` (centres unmarked) [{1-[2-Ethoxy-2-(4-nitro-phenyl)-ethyl]-piperidin-4-yl}-(4-fluoro-1phenyl)-methanone], the “Climbing Mouse Assay ED50 i.p.” value (intraperitoneal administration) is 4.16 mg/kg.
